Results on 22 compounds are retold here after US11312727B1, “Macrocyclic flu endonuclease inhibitors” (Janssen BioPharma, Inc., priority 2018, dated 2022).

Some results are limits rather than exact numbers.

The test system of data set [1] is Influenza strain A549 A/WSN/33 (H1N1). As to the kind of experiment: microbe, parasite or virus in culture. The class given is cell-based. As to conditions: Influenza A virus, A549, 20 h, A549 cells, influenza A/WSN/33 (H1N1), 20 hours incubation; read-out: A549_A(H1N1) EC50.
A short description of data set [2]: in vitro. As to conditions: human, CC50, uninfected A549 cells, CellTiter-Glo. In general terms: Cellular ATP, detected with luciferase, serves as a proxy for viable cell number.

Regarding `O=C1c2c(O)c(=O)ccn2N2CN1C1(/C=C/COc3cc(F)c(F)c4c3[C@@H]2c2ccccc2SC4)CC1` (single isomer, unassigned) [Compound 108A, (17a′*R,*E)-24′,25′-difluoro-12′-hydroxy-2′,17a′-dihydro-6′H-spiro[cyclopropane-1,9′-[3,4](epiprop[1]en[1]yl[3]ylidene)[10,17]methanobenzo[6,7]thiepino[4,5-c]pyrido[1,2-f][1]oxa[5,6,9]triazacyclotridecine]-11′,13′-dione], in data set [1], the concentration for a half-maximal effect (EC50) turned out to be 840 nM. The compound also showed a CC50 in data set [2] of 22600 nM.
In the case of `O=C1c2c(O)c(=O)ccn2N2CN1C/C=C\COc1ccccc1C2c1ccccc1` (centres unmarked) [Compound 5], the concentration giving a half-maximal response (EC50) in data set [1] was determined as 26 nM. Moreover, in data set [2], the CC50 was > 2000 nM.
Turning to `O=C1c2c(O)c(=O)ccn2N2CN1C[C@@H]1C[C@H]1COc1c(ccc(F)c1F)[C@H]2c1ccccc1` (single isomer, unassigned) [Compound 139BB, (1a*R,8*R,17a*R)-4,5-difluoro-14-hydroxy-8-phenyl-1a,2,17,17a-tetrahydro-1H,8H-9,16-methanobenzo[b]cyclopropa[k]pyrido[1,2-f][1]oxa[5,6,9]triazacyclotridecine-13,15-dione], the half-maximal effective concentration (EC50) in data set [1] was > 25 nM. For the same compound, the CC50 in data set [2] is > 50 nM.
On the same counts, the results for `O=C1c2c(O)c(=O)ccn2N2CN1C/C=C\COc1c(Cl)cccc1[C@@H]2c1ccccc1` (single isomer, unassigned) [Compound 75B, (18*S,Z)-4-chloro-12-hydroxy-18-phenyl-6,9-dihydro-18H-10,17-methanobenzo[b]pyrido[1,2-f][1]oxa[5,6,9]triazacyclotridecine-11,13-dione] are 3 nM and > 200 nM.
As to `CC[C@@H]1/C=C/COc2c(ccc(Cl)c2Cl)[C@H](c2ccccc2)N2CN1C(=O)c1c(O)c(=O)ccn12` (single isomer, unassigned) [Compound 121BA, (9*R,18*S,*E)-3,4-dichloro-9-ethyl-12-hydroxy-18-phenyl-6,9-dihydro-18H-10,17-methanobenzo[b]pyrido[1,2-f][1]oxa[5,6,9]triazacyclotridecine-11,13-dione], in data set [1], the EC50 was found to be 2.8 nM. For the same compound, the CC50 in data set [2] was > 200 nM.
Regarding `COc1ccccc1[C@H]1c2cccc(F)c2OC/C=C\CN2CN1n1ccc(=O)c(O)c1C2=O` (single isomer, unassigned) [Compound 117B, (18*S,*Z)-4-fluoro-12-hydroxy-18-(2-methoxyphenyl)-6,9-dihydro-18H-10,17-methanobenzo[b]pyrido[1,2-f][1]oxa[5,6,9]triazacyclotridecine-11,13-dione], the half-maximal effective concentration (EC50) in data set [1] is > 100 nM. Moreover, the 50% cytotoxic concentration (CC50) in data set [2] was > 200 nM.
Turning to `O=C1c2c(O)c(=O)ccn2N2CN1C1(/C=C/COc3cccc4c3[C@H]2c2ccccc2SC4)CCCC1` (single isomer, unassigned) [Compound 156A, (17a′*S,*E)-12′-hydroxy-2′,17a′-dihydro-6′H-spiro[cyclopentane-1,9′-[3,4](epiprop[1]en[1]yl[3]ylidene)[10,17]methanobenzo[6,7]thiepino[4,5-c]pyrido[1,2-f][1]oxa[5,6,9]triazacyclotridecine]-11′,13′-dione], in data set [1], the EC50 was found to be 0.51 nM. Further, the CC50 in data set [2] was > 100 nM.
On the same counts, the results for `O=C1c2c(O)c(=O)ccn2N2CN1C1(/C=C/COc3c(ccc(F)c3F)[C@@H]2c2ccccn2)CCC1` (single isomer, unassigned) [Compound 172B, (18′*R,*E)-3′,4′-difluoro-12′-hydroxy-18′-(pyridin-2-yl)-6′H,18′H-spiro[cyclobutane-1,9′-[10,17]methanobenzo[b]pyrido[1,2-f][1]oxa[5,6,9]triazacyclotridecine]-11′,13′-dione] are > 50 nM and > 100 nM.
On the same counts, the results for `C[C@H]1/C=C/COc2ccccc2[C@H](c2ccccc2)N2CN1C(=O)c1c(O)c(=O)ccn12` (single isomer, unassigned) [Compound 29BB, (9*S, 18*S, E)-12-hydroxy-9-methyl-18-phenyl-6,9-dihydro-18H-10,17-methanobenzo[b]pyrido[1,2-f][1]oxa[5,6,9]triazacyclotridecine-11,13-dione] are 8 nM and > 2000 nM.
For `C[C@@H]1/C=C\COc2cccc3c2[C@@H](c2ccccc2SC3)N2CN1C(=O)c1c(O)c(=O)ccn12` (single isomer, unassigned) [Compound 138AB, (13*R,21a*S,Z)-16-hydroxy-13-methyl-6,10,13,21a-tetrahydro-7,8-(epiprop[1]en[1]yl[3]ylidene)-14,21-methanobenzo[6,7]thiepino[4,5-c]pyrido[1,2-f][1]oxa[5,6,9]triazacyclotridecine-15,17-dione], in data set [1], the half-maximal effective concentration (EC50) is 1.5 nM. Moreover, the 50% cytotoxic concentration (CC50) in data set [2] was > 50 nM.
For `O=C1c2c(O)c(=O)ccn2N2CN1C[C@H]1C[C@@H]1COc1ccccc1[C@@H]2c1ccccc1` (single isomer, unassigned) [Compound 80AA, (1a*S,8*S,17a*S)-14-hydroxy-8-phenyl-1a,2,17,17a-tetrahydro-1H,8H-9,16-methanobenzo[b]cyclopropa[k]pyrido[1,2-f][1]oxa[5,6,9]triazacyclotridecine-13,15-dione] the same measures were 167 nM and > 1000 nM.
For `O=C1c2c(O)c(=O)ccn2N2CN1CC/C=C\COc1c(ccc(F)c1F)[C@@H]2c1ccccc1` (single isomer, unassigned) [Compound 116A, (2*S,Z)-33,34-difluoro-15-hydroxy-2-phenyl-12,13,14,16-tetrahydro-11H-4-oxa-1(1,3)-pyrido[2,1-f][1,2,4]triazina-3(1,2)-benzenacyclononaphan-6-ene-14,16-dione], the EC50 in data set [1] was determined as 14 nM. Further, the half-maximal cytotoxic concentration (CC50) in data set [2] was > 200 nM.
With `O=C1c2c(O)c(=O)ccn2N2CN1C/C=C\COc1cc(C(F)F)ccc1[C@@H]2c1ccccc1` (single isomer, unassigned) [Compound 94A, (18*S,Z)-3-(difluoromethyl)-12-hydroxy-18-phenyl-6,9-dihydro-18H-10,17-methanobenzo[b]pyrido[1,2-f][1]oxa[5,6,9]triazacyclotridecine-11,13-dione], the 50% effective concentration (EC50) in data set [1] worked out at 25.7 nM. Besides, in data set [2], the half-maximal cytotoxic concentration (CC50) was > 1000 nM.
As to `O=C1c2c(O)c(=O)ccn2N2CN1C/C=C\CCc1cnccc1[C@@H]2c1ccccc1` (single isomer, unassigned) [Compound 56B, (18*S,*Z)-12-hydroxy-18-phenyl-5,6,9,18-tetrahydro-10,17-methanodipyrido[1,2-b:3′,4′-k][1,2,5]triazacyclotridecine-11,13-dione], in data set [1], the concentration giving a half-maximal response (EC50) was found to be 161 nM. For the same compound, in data set [2], the CC50 was > 2000 nM.
As to `O=C1c2c(O)c(=O)ccn2N2CN1C[C@@H]1C[C@H]1COc1ccccc1[C@@H]2c1ccccc1` (single isomer, unassigned) [Compound 80AB, (1a*R,8*S,17a*R)-14-hydroxy-8-phenyl-1a,2,17,17a-tetrahydro-1H,8H-9,16-methanobenzo[b]cyclopropa[k]pyrido[1,2-f][1]oxa[5,6,9]triazacyclotridecine-13,15-dione], the EC50 in data set [1] came to 66 nM. Moreover, the CC50 in data set [2] was > 10000 nM.
On to `O=C1c2c(O)c(=O)ccn2N2CN1C/C=C\COc1cc(F)c(F)c3c1[C@H]2c1ccccc1SC3` (single isomer, unassigned) [Compound 140D, (21a*S,*Z)-24,25-difluoro-16-hydroxy-6,10,13,21a-tetrahydro-7,8-(epiprop[1]en[1]yl[3]ylidene)-14,21-methanobenzo[6,7]thiepino[4,5-c]pyrido[1,2-f][1]oxa[5,6,9]triazacyclotridecine-15,17-dione], for which, in data set [1], the EC50 was 1.2 nM. The CC50 in data set [2] is > 50 nM.
Consider `O=C1c2c(O)c(=O)ccn2N2CN1C/C=C\COc1cc(C(F)F)ccc1[C@H]2c1ccccc1` (single isomer, unassigned) [Compound 94B, (18*R,Z)-3-(difluoromethyl)-12-hydroxy-18-phenyl-6,9-dihydro-18H-10,17-methanobenzo[b]pyrido[1,2-f][1]oxa[5,6,9]triazacyclotridecine-11,13-dione], for which the EC50 in data set [1] is > 500 nM. In addition, the 50% cytotoxic concentration (CC50) in data set [2] is > 1000 nM.
Regarding `CC[C@@H]1/C=C/COc2c(F)cccc2[C@H](c2ccccn2)N2CN1C(=O)c1c(O)c(=O)ccn12` (single isomer, unassigned) [Compound 154BA, (9*R,18*R,*E)-9-ethyl-4-fluoro-12-hydroxy-18-(pyridin-2-yl)-6,9-dihydro-18H-10,17-methanobenzo[b]pyrido[1,2-f][1]oxa[5,6,9]triazacyclotridecine-11,13-dione], the EC50 in data set [1] amounted to 6.8 nM. In data set [2], the CC50 was > 100 nM.
On the same counts, the results for `O=C1c2c(O)c(=O)ccn2N2CN1C1(/C=C/COc3c(Cl)cccc3[C@@H]2c2ccccc2)CC1` (single isomer, unassigned) [Compound 96B] are > 500 nM and > 1000 nM.
Consider `O=C1c2c(O)c(=O)ccn2N2CN1C/C=C\COc1ccccc1[C@H]2c1cccc(F)c1` (single isomer, unassigned) [Compound 63A, (18*R,Z)-18-(3-fluorophenyl)-12-hydroxy-6,9-dihydro-18H-10,17-methanobenzo[b]pyrido[1,2-f][1]oxa[5,6,9]triazacyclotridecine-11,13-dione], for which the EC50 in data set [1] is > 1000 nM. Besides, the CC50 in data set [2] was > 2000 nM.
On the same counts, the results for `CC[C@H]1CCCOc2c(ccc(F)c2F)[C@@H](c2ccccc2)N2CN1C(=O)c1c(O)c(=O)ccn12` (single isomer, unassigned) [Compound 164A, (9*S,18*R)-9-ethyl-3,4-difluoro-12-hydroxy-18-phenyl-6,7,8,9-tetrahydro-18H-10,17-methanobenzo[b]pyrido[1,2-f][1]oxa[5,6,9]triazacyclotridecine-11,13-dione] are > 50 nM and > 100 nM.
With `O=C1c2c(O)c(=O)ccn2N2CN1C/C=C\COc1c(ccc(F)c1F)[C@H]2c1ccccc1` (single isomer, unassigned) [Compound 74A, (18*R,Z)-3,4-difluoro-12-hydroxy-18-phenyl-6,9-dihydro-18H-10,17-methanobenzo[b]pyrido[1,2-f][1]oxa[5,6,9]triazacyclotridecine-11,13-dione], the concentration giving a half-maximal response (EC50) in data set [1] was > 1000 nM. In addition, the 50% cytotoxic concentration (CC50) in data set [2] was > 2000 nM.

What is called EC50 is the concentration giving half of the maximal effect. What is called CC50 is the concentration giving 50% cytotoxicity.
